Data taken from patent US20240239794A1, “PKC-Theta Modulators” (Exscientia AI Limited, priority 2021, published 2024).
Counter-ions that a name gives are not always drawn. Like-named read-outs stand apart in the source and are kept apart here.

Columns and labels:
[1] = molecular target: Recombinant human PKC-theta (His-tagged 362-706) (Homo sapiens (Human), UniProt Q04759); test: PKC-theta inhibition assay (HTRF KinEASE kit); format: biochemical; settings: ATP 6.5 μM
Experimental: (§1) PKC-theta and PKC-delta biochemical activities were measured using the PKC-theta HTRF KinEASEkit kit, according to manufacturer's instructions (Cisbio, catalogue number 61ST1PEJ). Briefly, the kinase buffer component of the kit was supplemented with 10 mM MgCl2, 1 mM DTT and 0.1% Tween 20. For the PKC-theta assay, STK substrate and ATP were added to provide a final assay concentration of 525 nM and 6.5 μM, respectively. For the PKC-delta assay, STK substrate and ATP were added to provide a final assay concentration of 243 nM and 5.7 μM, respectively. The streptavidin_XL665 and STK antibody-cryptate detection reagents were mixed according to the manufacturer's instructions. Test compounds were diluted in DMSO in a series of 10 semi-log step doses; 10 nL of each compound dose were dispensed in 384 well plates. Recombinant human PKC-theta (His-tagged 362-706) or PKC-delta (His-tagged 345-676) was diluted into kinase buffer to provide a final assay concentration of 10 ng/ml and added to the test compound for 30 minutes on ice. The reaction was started by addition of the substrate and ATP and incubated at 25° C. for 30 minutes or 20 minutes for the PKC-theta and PKC-delta assays, respectively. The detection reagents were added, and the plate was incubated in the dark for 2 hours. Fluorescence was measured on an Envision 2103 plate reader with optical setup for […] in the HTRF mode. The ratio of acceptor and donor emission signals was calculated for each well. Percent inhibition values were calculated from the HTRF ratios at different doses and fitted to a 4-parameter logistic curve to determine IC50 values (see Table 1).

[2] = system: IL-2 secretion by human effector memory T cells (TEM); test: Effector memory T cells IL-2 release assay; format: cell-based; settings: T-cell, 24 h
Experimental: Test compound-mediated inhibition of NFκB signalling in T cells was assessed by quantification of the IL-2 secretion by human effector memory T cells (TEM) upon treatment and stimulation. Human TEM cells were isolated from buffy coats of healthy donors obtained from the French blood bank. First, peripheral blood mononuclear cells (PBMC) were purified from buffy coats diluted 1:1 with DPBS (Gibco, cat #14190-094) by Pancoll (PAN BIOTECH, cat #P04-60500) density gradient centrifugation at 400×g for 20 minutes. TEM cells were further enriched by negative immuno-magnetic cell sorting using a human CD4+ Effector Memory T Cell Isolation Kit (Miltenyi, cat #130-094-125) according to the manufacturer's instructions. Aliquots of 3×10E6 purified TEM cells were kept frozen in Cryo-SFM medium (PromoCell, cat #C-29912) in gas phase nitrogen until used. Cell purity was verified by flow cytometry analysis of 200 000 PFA-fixed cells previously labelled with monoclonal antibodies anti-CD4-PerCP-Cy5.5 (BD Pharmigen, cat #332772), anti-CD8-V500 (BD Biosciences, cat #561617), anti-CD14-Pacific Blue (Biolegend, cat #325616), anti-CD45 RA-FITC (Biolegend, cat #304106) and anti-CCR7-APC (in CD4+ Effector Memory T Cell Isolation Kit, Miltenyi, cat #130-094-125).
TEM cells were resuspended in complete RPMI medium composed of: RPMI 1640 (Gibco, cat #31870-025), 10% heat inactivated fetal bovine serum (Sigma, cat #F7524), 2 mM GlutaMAX (Gibco, cat #35050-038), 1 mM sodium pyruvate 100× (Gibco, cat #11360-039), 1% MEM non-essential amino acids solution (Gibco, cat #11140-035) and 100 U/mL penicillin, 100 µg/mL streptomycin (Sigma-Aldrich, cat #11074440001). 5,000 cells per well were plated onto flat clear bottom 384 well plates (Corning, cat #3770). 5,000 Dynabeads Human T-Activator CD3/CD28 (Gibco, cat #11132D) were added to each well for cell stimulation. Finally, 10 doses of test compound, originally prepared in DMSO by serial semi-log step dilution, were also added to cells in triplicate wells. Final DMSO concentration in wells was 0.1% in a total volume of 100 µL complete medium. Plates were incubated for 24 h at 37° C. in 5% CO2 atmosphere. After incubation, cell suspensions were centrifuged at 400×g and culture supernatants were recovered and stored at −80° C. Cell viability was assessed by flow cytometry after staining the cells with Fixable Viability Dye eFluor 780 (Invitrogen, cat #65-0865-14). IL-2 levels were determined in cell supernatants using an HTRF human IL-2 detection kit (Cisbio, cat #62HIL02PEH). IL-2 data at the different compound doses were fitted to a 4-parameter logistic curve to determine IC50 values, corresponding to the compound concentration leading to 50% reduction of the maximal IL-2 levels observed in each experiment. Viability data were analysed similarly to exclude cytotoxicity as a cause of IL-2 decrease (see Table 1).

[3] = molecular target: Recombinant human PKC-delta (His-tagged 345-676) (Homo sapiens (Human), UniProt Q05655); test: PKC-delta inhibition assay (HTRF KinEASE kit), PKC-theta/PKC-delta selectivity; format: biochemical; settings: ratio; for PKC-theta/PKC-delta selectivity: PKC-theta over PKC-delta, HTRF assays; for PKC-theta/PKC-delta selectivity (binned): binned A to G
Sequence of Recombinant human PKC-delta (His-tagged 345-676) (Q05655 345-676): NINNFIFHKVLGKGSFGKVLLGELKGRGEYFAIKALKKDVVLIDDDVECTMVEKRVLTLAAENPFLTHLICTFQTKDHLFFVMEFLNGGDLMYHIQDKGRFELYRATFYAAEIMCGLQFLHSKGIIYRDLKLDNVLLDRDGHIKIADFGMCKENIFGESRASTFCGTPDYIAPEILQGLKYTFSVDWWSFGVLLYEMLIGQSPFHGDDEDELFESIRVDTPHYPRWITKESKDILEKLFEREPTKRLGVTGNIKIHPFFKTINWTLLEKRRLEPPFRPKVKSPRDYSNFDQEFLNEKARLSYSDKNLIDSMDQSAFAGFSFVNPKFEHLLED
Experimental: as §1

[4] = binned A to H, read-out: PKC-theta HTRF pIC50 (binned) (converted)
[5] = read-out: PKC-theta HTRF pIC50 (converted)
[6] = human CD4+ TEM cells, CD3/CD28 bead stimulation, binned A to G, read-out: PKC-theta IL2 pIC50 (binned) (converted)
[7] = human CD4+ TEM cells, CD3/CD28 bead stimulation, read-out: PKC-theta IL2 pIC50 (converted)

Sequence of Recombinant human PKC-theta (His-tagged 362-706) (Q04759 362-706): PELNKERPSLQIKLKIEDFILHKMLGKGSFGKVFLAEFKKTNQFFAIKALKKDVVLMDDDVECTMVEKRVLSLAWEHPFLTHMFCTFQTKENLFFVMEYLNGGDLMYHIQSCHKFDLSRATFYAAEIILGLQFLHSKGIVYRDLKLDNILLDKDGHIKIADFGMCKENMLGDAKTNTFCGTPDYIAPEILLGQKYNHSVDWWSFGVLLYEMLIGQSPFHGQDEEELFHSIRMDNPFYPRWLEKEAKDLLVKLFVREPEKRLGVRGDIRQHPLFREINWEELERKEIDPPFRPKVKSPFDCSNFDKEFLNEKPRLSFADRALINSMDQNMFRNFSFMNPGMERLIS

IC50 [1, 4] | IC50 [1, 5] | IC50 [2, 6] | IC50 [2, 7] | PKC-theta/PKC-delta selectivity [3] | PKC-theta/PKC-delta selectivity (binned) [3] | PKC-theta HTRF pIC50 [1] | Structure (SMILES) | IC50 ([2]; Homo sapiens, read-out: PKC-theta IL2 pIC50 (binned) (converted)) | IC50 ([2]; Homo sapiens, read-out: PKC-theta IL2 pIC50 (converted))
3.16 to 10 nM | 3.98 nM | 100 to 316 nM | 126 nM | 23 | C (C means a ratio of between 20 and 30) | – | CN[C@@]1(C)C(=O)Nc2nccc(-c3nn(C4(CC#N)CCC4)c4ccccc34)c21 (single isomer, unassigned) [Example 94] | – | –
3.16 to 10 nM | 7.94 nM | 31.6 to 100 nM | 100 nM | 29 | C (C means a ratio of between 20 and 30) | – | CC[C@]1(C)C(=O)Nc2nccc(-c3nn([C@H]4CCNC[C@H]4F)c4ccc(F)cc34)c21 (single isomer, unassigned) [Example 100] | – | –
10 to 31.6 nM | 12.6 nM | 316 to 1000 nM | 398 nM | 33 | B (B means a ratio of between 30 and 50) | – | CC[C@@]1(C)C(=O)Nc2nccc(-c3nn([C@@H]4CCNC[C@@H]4F)c4ccccc34)c21 (single isomer, unassigned) [Example 105] | – | –
10 to 31.6 nM | 20 nM | 316 to 1000 nM | 631 nM | 23 | C (C means a ratio of between 20 and 30) | – | CC[C@@]1(C)C(=O)Nc2nccc(-c3nn([C@H]4CCNC[C@H]4F)c4ccccc34)c21 (single isomer, unassigned) [Example 107] | – | –
316 to 1000 nM | – | > 1000 nM | 3160 nM | 1 | G (G means a ratio of between 0 and 1) | 6.1 | O=c1[nH]c2nccc(-c3cnn(C4CCNCC4)c3)c2[nH]1 [Example 1] | – | –

Continued, compound first:

Structure (SMILES) | IC50 [1, 4] | IC50 [1, 5] | IC50 [2, 6] | IC50 [2, 7] | PKC-theta/PKC-delta selectivity [3] | PKC-theta/PKC-delta selectivity (binned) [3] | PKC-theta HTRF pIC50 [1] | IC50 ([2]; Homo sapiens, read-out: PKC-theta IL2 pIC50 (binned) (converted)) | IC50 ([2]; Homo sapiens, read-out: PKC-theta IL2 pIC50 (converted))
CO[C@@]1(C)C(=O)Nc2nccc(-c3nn([C@H]4CCNC[C@H]4F)c4ccccc34)c21 (single isomer, unassigned) [Example 93] | 3.16 to 10 nM | 3.98 nM | 31.6 to 100 nM | 50.1 nM | 10 | E (E means a ratio of between 5 and 10) | – | – | –
CN[C@]1(C)C(=O)Nc2nccc(-c3nn(C4(CC#N)CCC4)c4ccccc34)c21 (single isomer, unassigned) [Example 95] | ≤ 1 nM | 0.126 nM | 1 to 3.16 nM | 1.58 nM | 25 | C (C means a ratio of between 20 and 30) | – | – | –
CC[C@@]1(C)C(=O)Nc2nccc(-c3nn([C@@H]4CCNC[C@@H]4F)c4ccc(F)cc34)c21 (single isomer, unassigned) [Example 97] | 1 to 3.16 nM | 2.51 nM | 31.6 to 100 nM | 39.8 nM | 23 | C (C means a ratio of between 20 and 30) | – | – | –
CC[C@]1(C)C(=O)Nc2nccc(-c3nn([C@@H]4CCNC[C@@H]4F)c4ccc(F)cc34)c21 (single isomer, unassigned) [Example 98] | 10 to 31.6 nM | 31.6 nM | > 1000 nM | 1000 nM | 57 | A (A means a ratio of between 50 and 120) | – | – | –
CC[C@@]1(C)C(=O)Nc2nccc(-c3nn([C@H]4CCNC[C@H]4F)c4ccc(F)cc34)c21 (single isomer, unassigned) [Example 99] | 31.6 to 100 nM | 100 nM | 316 to 1000 nM | 398 nM | 105 | A (A means a ratio of between 50 and 120) | – | – | –
CC[C@]1(C)C(=O)Nc2nccc(-c3nn([C@@H]4CCNC[C@@H]4F)c4cc(F)ccc34)c21 (single isomer, unassigned) [Example 101] | 10 to 31.6 nM | 25.1 nM | 316 to 1000 nM | 631 nM | 42 | B (B means a ratio of between 30 and 50) | – | – | –
CC[C@@]1(C)C(=O)Nc2nccc(-c3nn([C@@H]4CCNC[C@@H]4F)c4cc(F)ccc34)c21 (single isomer, unassigned) [Example 103] | 1 to 3.16 nM | 2.51 nM | 31.6 to 100 nM | 63.1 nM | 22 | C (C means a ratio of between 20 and 30) | – | – | –
CC[C@@]1(C)C(=O)Nc2nccc(-c3nn([C@H]4CCNC[C@H]4F)c4cc(F)ccc34)c21 (single isomer, unassigned) [Example 104] | ≤ 1 nM | 0.794 nM | 10 to 31.6 nM | 12.6 nM | 17 | D (D means a ratio of between 10 and 20) | – | – | –
CC[C@]1(C)C(=O)Nc2nccc(-c3nn([C@@H]4CCNC[C@@H]4F)c4ccccc34)c21 (single isomer, unassigned) [Example 106] | ≤ 1 nM | 0.794 nM | 10 to 31.6 nM | 12.6 nM | 15 | D (D means a ratio of between 10 and 20) | – | – | –
CC[C@]1(C)C(=O)Nc2nccc(-c3nn([C@H]4CCNC[C@H]4F)c4ccccc34)c21 (single isomer, unassigned) [Example 108] | 1 to 3.16 nM | 3.16 nM | 31.6 to 100 nM | 50.1 nM | 17 | D (D means a ratio of between 10 and 20) | – | – | –
Cc1nn(C2CCNCC2)cc1-c1ccnc2[nH]c(=O)[nH]c12 [Example 2] | > 1000 nM | – | > 1000 nM | 10000 nM | 0.2 | G (G means a ratio of between 0 and 1) | 5.1 | – | –
O=c1[nH]c2nccc(-c3ccn(C4CCNCC4)c3)c2[nH]1 [Example 3, 7-[1-(4-piperidyl)pyrrol-3-yl]-1,3-dihydroimidazo[4,5-b]pyridin-2-one; Dihydrochloride] | 100 to 316 nM | – | – | – | 1 | F (F means a ratio of between 1 and 5) | 6.7 | > 1000 nM | 6310 nM
